US10166218B2, “3-(1H-indol-2-yl)-1H-pyrazolo[3,4-C]pyridines and therapeutic uses thereof” (Samumed, LLC, priority 2015, dated 2019)

Legend:
Format in all cases: cell-based
[1] = tested on: SW480 colon cancer cells; assay: Cell viability assay (CellTiter-Blue) in SW480 colon cancer cells; settings: Homo sapiens, 96 h, four days; for EC50: CellTiter-Blue; for inhibition at 10 µM: read-out: percent inhibition at 10 μM (given for EC50 of >10 μM)
In short: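 Approximately 2×10^3 SW480 cells per well are seeded with compound (8 points, threefold steps, top 10 μM) and incubated four days at 37 °C. CellTiter-Blue is then added for about 3 h and fluorescence read. Non-linear regression gives EC50; for values beyond 10 μM, percent inhibition at that concentration is listed.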

[2] = tested on: Wnt activity (Sp5-Luc reporter, TCF/LEF binding sites) in SW480 colon carcinoma cells; assay: Screening assay for Wnt activity: Sp5-Luc reporter gene assay in stably transduced SW480 cells; settings: Homo sapiens; for EC50: overnight incubation; for inhibition at 10 µM: read-out: percent inhibition at 10 μM (given for EC50 of >10 μM)
In short: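 Wnt-driven firefly luciferase in SW480 colon carcinoma cells reports pathway activity after overnight compound exposure (10 μM top concentration, 3-fold steps). Signal is normalized to DMSO controls.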

[3] = tested on: IL-6 (THP-1 cells); assay: Inhibition of IL-6 in LPS-stimulated THP-1 human monocyte cells (HTRF); settings: for inhibition at 10 µM: IL-6 assay in LPS-stimulated THP-1 cells, given only where EC50 >10 μM, meaning not given (top concentration 10 μM), read-out: percentage given in parentheses after EC50 >10; for EC50: inhibition of IL-6 in LPS-stimulated THP-1 cells, HTRF, 10-point dose-response starting from 10 μM
In short: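 THP-1 cells, serum-reduced (1% FBS) for 24 h, were preincubated with compound (10-point 1:3 series from 10 μM, 0.1% DMSO) for 2 h, then stimulated with 500 ng/mL LPS for 22 h at 37° C. IL-6 was read by HTRF (665/620 nm ratio) and normalized to DMSO. EC50 from four-parameter fit; % inhibition at 10 μM given if EC50 >10 μM.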

SMILES | EC50 [1] | EC50 [2] | inhibition at 10 µM [3] | EC50 [3] | inhibition at 10 µM [2] | inhibition at 10 µM [1]
Cc1ccncc1-c1cc2c(-c3cc4c(-c5cccc(F)c5)cccc4[nH]3)n[nH]c2cn1 [Compound 5, 3-(4-(3-Fluorophenyl)-1H-indol-2-yl)-5-(4-methylpyridin-3-yl)-1H-pyrazolo [3,4-c]pyridine] | 6840 nM | 590 nM | 30.7% | > 10000 nM | – | –
O=C(Nc1cncc(-c2cc3c(-c4cc5c(-c6cccc(F)c6)cccc5[nH]4)n[nH]c3cn2)c1)c1ccccc1 [Compound 11, N-(5-(3-(4-(3-Fluorophenyl)-1H-indol-2-yl)-1H-pyrazolo[3,4-c]pyridin-5-yl)pyridin-3-yl)benzamide] | 5420 nM | > 10000 nM | – | 3210 nM | 50.2% | –
O=C(Nc1cncc(-c2cc3c(-c4cc5c(-c6cccc(F)c6)cccc5[nH]4)n[nH]c3cn2)c1)C1CCC1 [Compound 21, N-(5-(3-(4-(3-Fluorophenyl)-1H-indol-2-yl)-1H-pyrazolo[3,4-c]pyridin-5-yl)pyridin-3-yl)cyclobutanecarboxamide] | > 10000 nM | 1510 nM | 0% | > 10000 nM | – | 11.5%
CC(C)CC(=O)Nc1cncc(-c2cc3c(-c4cc5c(-c6ccc(F)cc6)cccc5[nH]4)n[nH]c3cn2)c1 [Compound 30, N-(5-(3-(4-(4-Fluorophenyl)-1H-indol-2-yl)-1H-pyrazolo[3,4-c]pyridin-5-yl)pyridin-3-yl)-3-methylbutanamide] | > 10000 nM | 1540 nM | – | 5130 nM | – | 28.3%
CCNCc1cncc(-c2cc3c(-c4cc5c(-c6ccc(F)cc6)cccc5[nH]4)n[nH]c3cn2)c1 [Compound 34, N-((5-(3-(4-(4-Fluorophenyl)-1H-indol-2-yl)-1H-pyrazolo[3,4-c]pyridin-5-yl)pyridin-3-yl)methyl)ethanamine] | 805 nM | 382 nM | – | 399 nM | – | –
O=C(Cc1ccccc1)Nc1cncc(-c2cc3c(-c4cc5c(-c6ccc(F)cc6)cccc5[nH]4)n[nH]c3cn2)c1 [Compound 38, N-(5-(3-(4-(4-Fluorophenyl)-1H-indol-2-yl)-1H-pyrazolo[3,4-c]pyridin-5-yl)pyridin-3-yl)-2-phenylacetamide] | 4320 nM | 4310 nM | 29.4% | > 10000 nM | – | –
Fc1ccc(-c2cccc3[nH]c(-c4n[nH]c5cnc(-c6cncc(CN7CCCC7)c6)cc45)cc23)cc1 [Compound 42, 3-(4-(4-Fluorophenyl)-1H-indol-2-yl)-5-(5-(pyrrolidin-1-ylmethyl)pyridin-3-yl)-1H-pyrazolo[3,4-c]pyridine] | 1080 nM | 1840 nM | – | 3810 nM | – | –
O=C(Nc1cncc(-c2cc3c(-c4cc5c(-c6ccc(F)cc6)cccc5[nH]4)n[nH]c3cn2)c1)C1CCCCC1 [Compound 51, N-(5-(3-(4-(4-Fluorophenyl)-1H-indol-2-yl)-1H-pyrazolo[3,4-c]pyridin-5-yl)pyridin-3-yl)cyclohexanecarboxamide] | 9620 nM | > 10000 nM | 6.7% | > 10000 nM | 32.6% | –
Fc1ccc(-c2cccc3[nH]c(-c4n[nH]c5cnc(-c6cncnc6)cc45)cc23)cc1 [Compound 55, 3-(4-(4-Fluorophenyl)-1H-indol-2-yl)-5-(pyrimidin-5-yl)-1H-pyrazolo[3,4-c]pyridine] | > 10000 nM | 4140 nM | – | 9590 nM | – | 13.6%
Nc1cncc(-c2cc3c(-c4cc5c(-c6ccccc6F)cccc5[nH]4)n[nH]c3cn2)c1 [Compound 59, 5-(3-(4-(2-Fluorophenyl)-1H-indol-2-yl)-1H-pyrazolo[3,4-c]pyridin-5-yl) pyridin-3-amine] | 1300 nM | 296 nM | – | 968 nM | – | –
CC(C)C(=O)Nc1cncc(-c2cc3c(-c4cc5c(-c6ccccc6F)cccc5[nH]4)n[nH]c3cn2)c1 [Compound 65, N-(5-(3-(4-(2-Fluorophenyl)-1H-indol-2-yl)-1H-pyrazolo[3,4-c]pyridin-5-yl)pyridin-3-yl)isobutyramide] | 5050 nM | > 10000 nM | 30.1% | > 10000 nM | 35.8% | –
Fc1ccccc1-c1cccc2[nH]c(-c3n[nH]c4cnc(-c5cncc(CN6CCCCC6)c5)cc34)cc12 [Compound 71, 3-(4-(2-Fluorophenyl)-1H-indol-2-yl)-5-(5-(piperidin-1-ylmethyl)pyridin-3-yl)-1H-pyrazolo[3,4-c]pyridine] | 1660 nM | 2090 nM | – | 7660 nM | – | –
CCCCC(=O)Nc1cncc(-c2cc3c(-c4cc5c(-c6ccccc6F)cccc5[nH]4)n[nH]c3cn2)c1 [Compound 75, N-(5-(3-(4-(2-Fluorophenyl)-1H-indol-2-yl)-1H-pyrazolo[3,4-c]pyridin-5-yl)pyridin-3-yl)pentanamide] | > 10000 nM | > 10000 nM | – | 3 nM | 11.1% | 10.7%
O=C(Nc1cncc(-c2cc3c(-c4cc5c(-c6ccccc6F)cccc5[nH]4)n[nH]c3cn2)c1)C1CC1 [Compound 76, N-(5-(3-(4-(2-Fluorophenyl)-1H-indol-2-yl)-1H-pyrazolo[3,4-c]pyridin-5-yl)pyridin-3-yl)cyclopropanecarboxamide] | 6550 nM | 940 nM | 11.1% | > 10000 nM | – | –
CCC(=O)Nc1cncc(-c2cc3c(-c4cc5c(-c6cccnc6)cccc5[nH]4)n[nH]c3cn2)c1 [Compound 85, N-(5-(3-(4-(Pyridin-3-yl)-1H-indol-2-yl)-1H-pyrazolo[3,4-c]pyridin-5-yl)pyridin-3-yl)propionamide] | 1160 nM | 305 nM | – | 74 nM | – | –
c1cncc(-c2cc3c(-c4cc5c(-c6cccnc6)cccc5[nH]4)n[nH]c3cn2)c1 [Compound 88, 5-(Pyridin-3-yl)-3-(4-(pyridin-3-yl)-1H-indol-2-yl)-1H-pyrazolo[3,4-c]pyridine] | 1090 nM | 260 nM | – | 109 nM | – | –
CC(C)C(=O)Nc1cncc(-c2cc3c(-c4cc5c(-c6cccnc6)cccc5[nH]4)n[nH]c3cn2)c1 [Compound 93, N-(5-(3-(4-(Pyridin-3-yl)-1H-indol-2-yl)-1H-pyrazolo[3,4-c]pyridin-5-yl)pyridin-3-yl)isobutyramide] | 305 nM | 275 nM | – | 181 nM | – | –
O=C(Nc1cncc(-c2cc3c(-c4cc5c(-c6cccnc6)cccc5[nH]4)n[nH]c3cn2)c1)c1ccccc1 [Compound 95, N-(5-(3-(4-(Pyridin-3-yl)-1H-indol-2-yl)-1H-pyrazolo[3,4-c]pyridin-5-yl)pyridin-3-yl)benzamide] | 1400 nM | 400 nM | – | 727 nM | – | –
c1cncc(-c2cccc3[nH]c(-c4n[nH]c5cnc(-c6cncc(CN7CCCC7)c6)cc45)cc23)c1 [Compound 98, 3-(4-(Pyridin-3-yl)-1H-indol-2-yl)-5-(5-(pyrrolidin-1-ylmethyl)pyridin-3-yl)-1H-pyrazolo[3,4-c]pyridine] | 7220 nM | 1200 nM | – | 1520 nM | – | –
O=C(Nc1cncc(-c2cc3c(-c4cc5c(-c6cccnc6)cccc5[nH]4)n[nH]c3cn2)c1)C1CC1 [Compound 104, N-(5-(3-(4-(Pyridin-3-yl)-1H-indol-2-yl)-1H-pyrazolo[3,4-c]pyridin-5-yl)pyridin-3-yl)cyclopropanecarboxamide] | 1470 nM | 336 nM | – | 226 nM | – | –
Cc1ccncc1-c1cc2c(-c3cc4c(-c5ccncc5)cccc4[nH]3)n[nH]c2cn1 [Compound 117, 5-(4-Methylpyridin-3-yl)-3-(4-(pyridin-4-yl)-1H-indol-2-yl)-1H-pyrazolo [3,4-c]pyridine] | > 10000 nM | > 10000 nM | 53% | > 10000 nM | 43.1% | 16.6%
CC(C)(C)C(=O)Nc1cncc(-c2cc3c(-c4cc5c(-c6ccncc6)cccc5[nH]4)n[nH]c3cn2)c1 [Compound 120, N-(5-(3-(4-(Pyridin-4-yl)-1H-indol-2-yl)-1H-pyrazolo[3,4-c]pyridin-5-yl)pyridin-3-yl)pivalamide] | > 10000 nM | 194 nM | – | 2500 nM | – | 32.2%
CC(C)(C)CC(=O)Nc1cncc(-c2cc3c(-c4cc5c(-c6ccncc6)cccc5[nH]4)n[nH]c3cn2)c1 [Compound 128, 3,3-Dimethyl-N-(5-(3-(4-(pyridin-4-yl)-1H-indol-2-yl)-1H-pyrazolo[3,4-c]pyridin-5-yl)pyridin-3-yl)butanamide] | > 10000 nM | > 10000 nM | 0% | > 10000 nM | 46.5% | 14%
